Patent US20080039522A1, “Composition Containing a Complex Comprising a Metal Ion and a Carboxylate Ligand Having Anti-Inflammatory Activity” (Medical Therapies Limited, priority 2004, published 2008)

Tests used:
Sprague-Dawley rats [1] = assay: Small intestine ulceration after oral administration; type: in vivo, rat; settings: rats fed, oral gavage, 24 h after dosing; IndoH 10 mg kg^−1, complexes 11 mg kg^−1; mean ± sem; listed as Sample F
Experimental: The rats were orally administered (non-anaesthetized) the Test Samples or Test Compositions via oral gavage. The controls were dosed with CMC (2%) solution.
The total volume of the MCT or carbopol paste compositions administered per dose in the assessment of gastrointestinal ulceration was no more than 0.5 g.

Sprague-Dawley rats [2] = assay: Anti-inflammatory activity (rat paw oedema) of topical creams; type: in vivo; settings: topical emulsifying cream
Experimental: All rat experiments were performed as outlined in Example 7, except for the following changes. In Vivo Anti-inflammatory Activity and Gastric Toxicity. For topical administration, rats were treated with test compositions containing [Cu2(Indo)4(OH2)2] (“CuIndo”), [Zn(Indo)2(OH2)2] (“ZnIndo”), IndoH, or an equivalent Indo and Cu dose of a physical mixture of [Cu2(OAc)4(OH2)2] and IndoH thoroughly mixed in an emulsifying cream (see below). An amount of 0.2 g of the composition was applied to the right hind paw of each animal and gently massaged in for 1 minute at three-hourly intervals. Inflammation was induced at the final topical application with an injection of carrageenan (0.1 mL, 1% w/v in isotonic saline) into the plantar region of the hind paw. The composition for topical application was a composition comprising 0.5-2% w/w of Indo delivered as [Cu2(Indo)4(OH2)2] (“CuIndo”), [Zn(Indo)2(OH2)2] (“ZuIndo”), IndoH or an equivalent Indo and Cu dose of a physical mixture of [Cu2(OAc)4(OH2)2] and IndoH in an emulsifying cream, the emulsifying cream consisting of: […]

Sprague-Dawley rats [3] = assay: Anti-inflammatory activity (rat paw oedema) after subcutaneous or intramuscular injection; type: in vivo
Experimental: In Vivo Anti-inflammatory Activity and Gastric Toxicity. Groups of four rats were used for all studies. All doses were calculated as equivalent concentrations of Indo. […] For subcutaneous and intramuscular administration, rats were injected with 125-200 μL volumes of the test compositions (IndoH or [Cu2(Indo)4(OH2)2] in MCT oil). The control cohort was injected with equivalent volumes of neat MCT. Subcutaneous injections were made in the lower dorsal surface and intramuscular injections were made in the right hind thigh muscle. Inflammation was induced 1 h after dosing by injection of the formulation by an injection of carrageenan (0.1 mL, 1% w/v in isotonic saline) into the plantar region of the hind paw.
Paw volume was measured prior to dosing and at 3 h after carrageenan injection by immersing the left hind paw (to the lateral malleus) into a vessel filled with water as described in Example 5. Immediately after paw volume measurements, 24 h-fasted animals were euthanised and the stomach was excised and opened by incision along the greater curvature.

## COc1ccc2c(c1)c(CC(=O)[O-])c(C)n2C(=O)c1ccc(Cl)cc1.COc1ccc2c(c1)c(CC(=O)[O-])c(C)n2C(=O)c1ccc(Cl)cc1.COc1ccc2c(c1)c(CC(=O)[O-])c(C)n2C(=O)c1ccc(Cl)cc1.COc1ccc2c(c1)c(CC(=O)[O-])c(C)n2C(=O)c1ccc(Cl)cc1.O.O.[Cu+2].[Cu+2] [[Cu2(Indo)4(OH2)2]]
Sprague-Dawley rats [1]
  Small intestine ulceration (mm^2): 61.0±34.5 mm^2
Sprague-Dawley rats [2]; conc. 0.5 % equiv of Indo
  Efficacy (% inhib): 12.2 % inhib
Sprague-Dawley rats [2]; conc. 0.75 % equiv of Indo
  Efficacy (% inhib): 73 % inhib
Sprague-Dawley rats [2]; conc. 1 % equiv of Indo
  Efficacy (% inhib): 52 % inhib
Sprague-Dawley rats [2]; conc. 2 % equiv of Indo
  Efficacy (% inhib): 55.2 % inhib
Sprague-Dawley rats [3]; intramuscular, fasting rats, 2 mg/kg equivalent dose of Indo
  Percent inhibition: 0%
Sprague-Dawley rats [3]; intramuscular, fasting rats, 10 mg/kg equivalent dose of Indo
  Percent inhibition: 47.7%
Sprague-Dawley rats [3]; intramuscular, fasting rats, 20 mg/kg equivalent dose of Indo
  Percent inhibition: 49.7%
Sprague-Dawley rats [3]; subcutaneous, 1 mg/kg of Indo, fasting
  Percent inhibition: 4%
Sprague-Dawley rats [3]; subcutaneous, 2 mg/kg of Indo, fasting
  Percent inhibition: 6%
Sprague-Dawley rats [3]; subcutaneous, 5 mg/kg of Indo, fasting
  Percent inhibition: 24.9%
Sprague-Dawley rats [3]; subcutaneous, 7.5 mg/kg of Indo, non-fasting
  Percent inhibition: 47%
Sprague-Dawley rats [3]; subcutaneous, 10 mg/kg of Indo, fasting
  Percent inhibition: 35.8%
Sprague-Dawley rats [3]; subcutaneous, 20 mg/kg of Indo, fasting
  Percent inhibition: 33.9%
Sprague-Dawley rats [3]; subcutaneous, 20 mg/kg of Indo, non-fasting
  Percent inhibition: 31.6%
Sprague-Dawley rats [3]; subcutaneous, in MCT oil
  dose at which the anti-inflammatory effect plateaus: 5-7.5 mg kg^−1 of Indo
